Experiment: xn = mol fraction of the nth substance listed
Conditions: 92 kPa, Liquid; for mass density: Vibrating tube method

CC(C)(N)CO [2-amino-2-methylpropan-1-ol] + O
Conditions | mass density [kg/m3] | viscosity [mPa·s]
298.15 K, x1 = 0.0503 | 996.94 | 2.32
298.15 K, x1 = 0.0704 | 997.22 | 3.23
298.15 K, x1 = 0.1005 | 997.05 | 5.01
298.15 K, x1 = 0.2006 | 989.06 | 14.82
298.15 K, x1 = 0.2939 | 978.77 | 22.7
298.15 K, x1 = 0.4075 | 967.43 | 51.5
298.15 K, x1 = 0.4982 | 959.61 | 76.8
298.15 K, x1 = 0.5996 | 952.01 | 102.5
298.15 K, x1 = 0.7028 | 945.34 | 124.3
298.15 K, x1 = 0.8016 | 939.53 | 140.7
298.15 K, x1 = 0.9001 | 934.8 | 149.1
303.15 K, x1 = 0.0503 | 994.7 | 1.98
303.15 K, x1 = 0.0704 | 994.6 | 2.67
303.15 K, x1 = 0.1005 | 993.88 | 4.05
303.15 K, x1 = 0.2006 | 985.15 | 11.32
303.15 K, x1 = 0.2939 | 974.76 | 16.96
303.15 K, x1 = 0.4075 | 963.43 | 36.9
303.15 K, x1 = 0.4982 | 955.61 | 54.3
303.15 K, x1 = 0.5996 | 948 | 70.3
303.15 K, x1 = 0.7028 | 941.38 | 84
303.15 K, x1 = 0.8016 | 935.53 | 94
303.15 K, x1 = 0.9001 | 930.7 | 98.9
313.15 K, x1 = 0.0503 | 989.66 | 1.608
313.15 K, x1 = 0.0704 | 988.95 | 1.931
313.15 K, x1 = 0.1005 | 987.5 | 2.79
313.15 K, x1 = 0.2006 | 977.24 | 7
313.15 K, x1 = 0.2939 | 966.67 | 12.51
313.15 K, x1 = 0.4075 | 955.29 | 20.37
313.15 K, x1 = 0.4982 | 947.43 | 28.7
313.15 K, x1 = 0.5996 | 939.82 | 36.1
313.15 K, x1 = 0.7028 | 933.1 | 42.5
313.15 K, x1 = 0.8016 | 927.27 | 46.2
313.15 K, x1 = 0.9001 | 923.35 | 47.9
313.15 K, x1 = 1 | 919.65 | 47.8
323.15 K, x1 = 0.0503 | 984.18 | 1.244
323.15 K, x1 = 0.0704 | 982.83 | 1.466
323.15 K, x1 = 0.1005 | 980.6 | 2.03
323.15 K, x1 = 0.2006 | 969.17 | 4.66
323.15 K, x1 = 0.2939 | 958.38 | 7.85
323.15 K, x1 = 0.4075 | 946.98 | 12.17
323.15 K, x1 = 0.4982 | 939.08 | 16.26
323.15 K, x1 = 0.5996 | 931.58 | 20
323.15 K, x1 = 0.7028 | 924.7 | 22.7
323.15 K, x1 = 0.8016 | 918.85 | 24.6
323.15 K, x1 = 0.9001 | 914.78 | 25.3
323.15 K, x1 = 1 | 911.24 | 25.1
333.15 K, x1 = 0.0503 | 978.15 | 0.931
333.15 K, x1 = 0.0704 | 976.26 | 1.154
333.15 K, x1 = 0.1005 | 973.43 | 1.55
333.15 K, x1 = 0.2006 | 960.92 | 3.27
333.15 K, x1 = 0.2939 | 949.92 | 5.23
333.15 K, x1 = 0.4075 | 938.48 | 7.63
333.15 K, x1 = 0.4982 | 930.56 | 10
333.15 K, x1 = 0.5996 | 923.08 | 11.97
333.15 K, x1 = 0.7028 | 915.97 | 13.33
333.15 K, x1 = 0.8016 | 910.36 | 14.22
333.15 K, x1 = 0.9001 | 906.31 | 14.53
333.15 K, x1 = 1 | 902.87 | 14.4
343.15 K, x1 = 0.0503 | 971.66 | 0.826
343.15 K, x1 = 0.0704 | 969.29 | 0.933
343.15 K, x1 = 0.1005 | 965.83 | 1.21
343.15 K, x1 = 0.2006 | 952.44 | 2.4
343.15 K, x1 = 0.2939 | 941.28 | 3.67
343.15 K, x1 = 0.4075 | 930 | 4.94
343.15 K, x1 = 0.4982 | 921.85 | 6.43
343.15 K, x1 = 0.5996 | 914.39 | 7.5
343.15 K, x1 = 0.7028 | 907 | 8.23
343.15 K, x1 = 0.8016 | 901.65 | 8.88
343.15 K, x1 = 0.9001 | 897.77 | 8.98
343.15 K, x1 = 1 | 894.28 | 8.91
